Measured values published in patent publication US8993542B2, “Methods of treating viral infections” (priority 2008, dated 2015).

Assays:
[1] = test system: HIV-1IIIB; test: Resistance selection by serial passage in CEM-SS cells; type: cell-based
Experimental: In vitro studies designed to select CMX157 resistant mutants use wild-type HIV-1 as the primary inoculum and TFV as a positive control. These studies are conducted by serial passage of HIV-1IIIB and HIV-1RF in CEM-SS cells using increasing concentrations of TFV or CMX157. Drug levels are increased following detection of viral growth at each passage using procedures known to one skilled in the art. Upon completion of each passage, the reverse transcriptase coding region of the viral genome is sequenced to identify any possible resistance-associated mutations that may have emerged within the virus pool.

[2] = test system: HIV-1IIIB; test: Two-drug combination antiviral assay in CEM cells (CPE), MacSynergy II; type: cell-based; details: in combination with CMX157, CEM-SS cells, 95% confidence
[3] = test system: HIV-1IIIB; test: Association of compound with concentrated virus (LC/MS/MS of viral pellets); type: binding; details: 500 nM, 2 hours
Experimental: To examine the potential of CMX157 to associate directly with virus, concentrated HIV-1IIIB (approximately 9.7×10^10 virus particles) is treated with 500 nM CMX157 or TFV for 2 hours. Following incubation, virus is pelleted to remove unbound compound, lysed with 70% ice cold methanol and centrifuged. Supernatants are analyzed in triplicate using LC/MS/MS (liquid chromatography/mass spectrometry). TFV, TFV mono- and diphosphate are separated by gradient, reverse phase, ion-paring chromatography and detected by positive ion electrospray. The levels of CMX157 associated with the viral pellets (≈37,000 molecules/virion) are much higher than the levels of TFV associated with viral pellets (≈100 molecules/virion).

[4] = Passage 1, Tenofovir 10 μM (2× IC50)
[5] = Passage 2, Tenofovir 20 μM (4× IC50)
[6] = Passage 3, Tenofovir 30 μM (6× IC50)
[7] = Passage 4, Tenofovir 40 μM (8× IC50)
[8] = Passage 5, Tenofovir 40 μM (8× IC50)
[9] = Passage 6, Tenofovir 40 μM (8× IC50)
[10] = Passage 7, Tenofovir 45 μM (9× IC50)
[11] = Passage 8, Tenofovir 50 μM (10× IC50)
[12] = Passage 9, Tenofovir 55 μM (11× IC50)
[13] = Passage 10, Tenofovir 60 μM (12× IC50)

In the case of `C[C@H](Cn1cnc2c(N)ncnc21)OCP(=O)(O)O` [TFV, (R)-9-(2-phosphonylmethoxypropyl)adenine], the “passage by which K65R was selected” value [1] is reported as at most 8 passage, the “Comments (virus replication)” value [1, 4] is reported as “Low-level virus replication observed” and the “Day of Peak Virus Production” value [1, 4] is reported as “Day 6”. The “Peak RT activity” value [1, 4] was “(3,525 cpm)”, the “Comments (virus replication)” value [1, 5] was “Low-level virus replication observed” and the “Day of Peak Virus Production” value [1, 5] was “Day 7”. For the same molecule, the “Peak RT activity” value [1, 5] was “(2,016 cpm)”, the “Comments (virus replication)” value [1, 6] was “Low-level virus replication observed” and the “Day of Peak Virus Production” value [1, 6] was “Day 14”. For the same molecule, the “Peak RT activity” value [1, 6] was “(2,062 cpm)”, the “Comments (virus replication)” value [1, 7] was “Low-level virus replication observed” and the “Day of Peak Virus Production” value [1, 7] was “Day 6”. For the same molecule, the “Peak RT activity” value [1, 7] was “(3,109 cpm)”, the “Comments (virus replication)” value [1, 8] was “Low-level virus replication observed;” and the “Day of Peak Virus Production” value [1, 8] was “Day 14”. For the same molecule, the “Peak RT activity” value [1, 8] was “(1,788 cpm)”, the “Comments (virus replication)” value [1, 9] was “Robust virus replication observed;” and the “Day of Peak Virus Production” value [1, 9] was “Day 19”. The “Peak RT activity” value [1, 9] was “(23,508)”, the “Comments (virus replication)” value [1, 10] was “Robust virus replication observed; minor” and the “Day of Peak Virus Production” value [1, 10] was “Day 7”. For the same molecule, the “Peak RT activity” value [1, 10] was “(24,408 cpm)”, the “Comments (virus replication)” value [1, 11] was “Robust virus replication observed; E404D” and the “Day of Peak Virus Production” value [1, 11] was “Day 9”. For the same molecule, the “Peak RT activity” value [1, 11] was “(57,455 cpm)”, the “Comments (virus replication)” value [1, 12] was “Robust virus replication observed;” and the “Day of Peak Virus Production” value [1, 12] was “Day 11”. The “Peak RT activity” value [1, 12] was “(25,458 cpm)”, the “Comments (virus replication)” value [1, 13] was “Robust virus replication observed;” and the “Day of Peak Virus Production” value [1, 13] was “Day 7”. For the same molecule, the “Peak RT activity” value [1, 13] was “(31,549 cpm)”, the “Antagonism Volume, Result 1” value [2] was −0.53 nM^2 %, μM^2 % or nMμM % and the “Antagonism Volume, Result 2” value [2] was 0 nM^2 %, μM^2 % or nMμM %. For the same molecule, the “Antagonism Volume, Result 3” value [2] was 0 nM^2 %, μM^2 % or nMμM %, the “Mean Antagonism Volume (n = 3)” value [2] was −0.18 nM^2 %, μM^2 % or nMμM % and the “Mean Synergy Volume (n = 3)” value [2] was 28.4 nM^2 %, μM^2 % or nMμM %. The “Synergy Volume, Result 1” value [2] was 17.6 nM^2 %, μM^2 % or nMμM %, the “Synergy Volume, Result 2” value [2] was 37.2 nM^2 %, μM^2 % or nMμM % and the “Synergy Volume, Result 3” value [2] was 30.3 nM^2 %, μM^2 % or nMμM %. For the same molecule, the “levels associated with the viral pellets” value [3] was “≈ 100 molecules/virion”.
